Measured values taken from US20170304228A1, “NEW INDICATION OF CINACALCET HCL PHARMACEUTICAL COMPOSITION FOR TREATING CANCER” (LAUNX BIOMEDICAL CO., LTD., priority 2014, published 2017).
“And” between values parts separate entries of the source, which are not always exact repeats. Identical values can stand only once. Counter-ions that a name gives are not always drawn. Like-named read-outs stand apart in the source and are kept apart here.

Key:
[1] = test system: BCC; assay: Cell viability analysis (WST-1), BCC; format: cell-based; settings: read-out: survival rate (viability) of cells
Protocol: (§1) The cell numbers were counted and reseed as 2×10^6 in culture plate/flask. Then, the culture medium were added to a volume of 10 ml, and the cells were cultured for 2-3 days. Then, the cells were suspended for loading into 96-well plates. The number of cells was 3000 and the volume of the culture medium was 100 μl each well.
(§2) Removing the original culture medium from 96-well plate. Then add 100 μl of commercially drug at a concentration of 10 μM per well. After 72 hours, add the diluted WST-1 reagent to the well with 100 μl/well, and the diluted WST-1 reagent was acquired from the dilution of 9:1 medium and WST-1 stock reagent. Finally, the total volume of each well was 200 μl/well. Culture the 96-well plate at 37° C. for 30 to 90 minutes. Detecting and calculate the survival rate of each cancer cells with an ELISA reader at OD450 nm. The lower viability of cancer cells represents better inhibition effect via the Cinacalcet HCl drug. Otherwise, the higher viability of cancer cells represents worse inhibition effect via the Cinacalcet HCl drug.
(§3) This inhibition test of Cinacalcet HCl on other cancer cells were using osteosarcoma cell line U2OS (Table 14), skin cancer cell lines A375 and BCC (Table 15). The inhibitory tests of Cinacalcet HCl were performed 4 times for each cell lines and then the average value of the inhibitory tests was calculated.

[2] = test system: LoVo; assay: Cell viability analysis (WST-1), LoVo; format: cell-based; settings: Homo sapiens, read-out: survival rate (viability) of cells
Protocol: as §1, §2
(§4) This inhibition test of Cinacalcet HCl on gastrointestinal tract-related cancer cells were using gastric cancer cell lines AGS and MKN-45 (Table 9), hepatic cancer cell lines HepG2 and Hep3B (Table 10), colorectal cancer cell lines HCT116-wt and LoVo (Table 11), pancreatic cancer cell line AsPC-1 and BxPC-3(Table 12), tongue cancer cell line SAS (Table 13). The inhibitory tests of Cinacalcet HCl were performed 4 times for each cell lines and then the average value of the inhibitory tests was calculated.

[3] = test system: A549; assay: Cell viability analysis (WST-1), A549; format: cell-based; settings: Homo sapiens, read-out: survival rate (viability) of cells
Protocol: as §1, §2
This inhibition test of Cinacalcet HCl on pleural-related cancer cells were using two lung cancer cell lines A549 and H1650. The inhibitory tests of Cinacalcet HCl were performed 4 times for each cell lines and then the average value of the inhibitory tests was calculated.

[4] = test system: C-33A; assay: Cell viability analysis (WST-1), C-33A; format: cell-based; settings: Homo sapiens, read-out: survival rate (viability) of cells
Protocol: as §1, §2
This inhibition test of Cinacalcet HCl on abdominal-related cancer cells were using bladder cancer cell line TSGH and T24 (Table 3), cervical cancer cell lines HeLa and C-33A (Table 4), renal cancer cell line 786-O (Table 5). The inhibitory tests of Cinacalcet HCl were performed 4 times for each cell lines and then the average value of the inhibitory tests was calculated.

[5] = test system: hepatic cancer cells; assay: Summary of cell viability, hepatic cancer cells; format: cell-based; settings: 72 hours, read-out: Inhibitory effect
Protocol: as §1, §2
(§5) Cinacalcet HCl is having different inhibitory effect on different tumor cell type even in the same cancer. […] (FIG. 1)

[6] = Animal model test of gastric cancer, body weight and health status; format: in vivo, mice; settings: for weight: single mice A, B, C, hydrochloride
Protocol: (§6) In this invention, the female mice were(BALB/cAnN.Cg-Foxnl™/CrlNarl) and purchased from National Laboratory Animal Center (Taiwan). The weight of the mice were 21±1 g. These mice were subcutaneously injected with gastric cancer cells (AGS) and then put these mice into different cages at random. The drug test experiment was divided into three groups, include “control group”, “low dose group (100 mg/kg/day)”, “high dose group (200 mg/kg/day)”. These mice were then injected test drug intraperitoneally once daily […]. The tumor sizes and body weight were measured twice a week. The tumor sizes were measured and calculated by formula: (L×W^2)/2. L represents the tumor longest length. W represents the tumor shortest diameter.

[7] = test system: gastric cancer cells; assay: Summary of cell viability, gastric cancer cells; format: cell-based; settings: 72 hours, read-out: Inhibitory effect
Protocol: as §1, §2, §5

[8] = test system: gastric cancer cells (AGS); assay: Animal model test of gastric cancer, tumor size; format: in vivo, mice
Protocol: as §6

[9] = test system: HCT116-wt; assay: Cell viability analysis (WST-1), HCT116-wt; format: cell-based; settings: read-out: survival rate (viability) of cells
Protocol: as §1, §2, §4

[10] = test system: U2OS; assay: Cell viability analysis (WST-1), U2OS; format: cell-based; settings: Homo sapiens, read-out: survival rate (viability) of cells
Protocol: as §1, §2, §3

[11] = Low dose (100 mg/kg/day) intraperitoneally, First measurement, average
[12] = Low dose (100 mg/kg/day) intraperitoneally, First measurement, single mice A, B, C, hydrochloride, 100 mg/kg/day
[13] = Low dose (100 mg/kg/day) intraperitoneally, Fourth measurement, average
[14] = Low dose (100 mg/kg/day) intraperitoneally, Fourth measurement, single mice A, B, C, hydrochloride, 100 mg/kg/day
[15] = Low dose (100 mg/kg/day) intraperitoneally, Second measurement, average
[16] = Low dose (100 mg/kg/day) intraperitoneally, Second measurement, single mice A, B, C, hydrochloride, 100 mg/kg/day
[17] = Low dose (100 mg/kg/day) intraperitoneally, Third measurement, average
[18] = both low dose and high dose, FIG. 3
[19] = high dose (200 mg/kg/day) intraperitoneally, First measurement, average
[20] = high dose (200 mg/kg/day) intraperitoneally, First measurement, single mice A, B, C, hydrochloride, 200 mg/kg/day
[21] = high dose (200 mg/kg/day) intraperitoneally, Fourth measurement, average
[22] = high dose (200 mg/kg/day) intraperitoneally, Second measurement, average
[23] = high dose (200 mg/kg/day) intraperitoneally, Second measurement, single mice A, B, C, hydrochloride, 200 mg/kg/day
[24] = high dose (200 mg/kg/day) intraperitoneally, Third measurement, average
[25] = high dose (200 mg/kg/day) intraperitoneally, Third measurement, single mice A, B, C, hydrochloride, 200 mg/kg/day

## C[C@@H](NCCCc1cccc(C(F)(F)F)c1)c1cccc2ccccc12 [Cinacalcet HCl, Cinacalcet hydrochloride]
[1]; 72 h, average of tests
  viability at 10 µM: 111%
[1]; 72 hours, test 0602-30 min
  viability at 10 µM: 114%
[1]; 72 hours, test 0605-10 min
  viability at 10 µM: 106%
[1]; 72 hours, test 0607-10 min
  viability at 10 µM: 113%
[2]; 72 h, average of tests
  viability at 10 µM: 93.4%
[2]; 72 hours, test 0616-10 min
  viability at 10 µM: 73.9%
[2]; 72 hours, test 0619-10 min
  viability at 10 µM: 125%
[2]; 72 hours, test 0621-10 min
  viability at 10 µM: 90.4%
[2]; 72 hours, test 0623-10 min
  viability at 10 µM: 84.2%
[3]; A549, 10 μM, 72 hours, test 0524-10 min
  viability at 10 µM: 87.7%
[3]; A549, 10 μM, 72 hours, test 0526-10 min
  viability at 10 µM: 103%
[3]; A549, 10 μM, 72 hours, test 0529-10 min
  viability at 10 µM: 75.5%
[3]; A549, 10 μM, 72 hours, test 0531-10 min
  viability at 10 µM: 92.6%
[3]; A549, 72 h, 10 μM, Average of tests
  viability at 10 µM: 89.6%
[4]; 72 h, average of tests
  viability at 10 µM: 110%
[4]; 72 hours, test 0524-10 min
  viability at 10 µM: 114%
[4]; 72 hours, test 0526-10 min
  viability at 10 µM: 119%
[4]; 72 hours, test 0529-10 min
  viability at 10 µM: 108%
[4]; 72 hours, test 0531-10 min
  viability at 10 µM: 100%
[5]
  viability at 10 µM: 102%
[6]; Low dose (100 mg/kg/day) intraperitoneally, First measurement, 100 mg/kg/day
  weight: 20 g and 16 g and 21 g
[6]; Low dose (100 mg/kg/day) intraperitoneally, Fourth measurement, 100 mg/kg/day
  weight: 22 g and 23 g
[6]; Low dose (100 mg/kg/day) intraperitoneally, Second measurement, 100 mg/kg/day
  weight: 21 g and 22 g and 19 g
[6]; Low dose (100 mg/kg/day) intraperitoneally, Third measurement, 100 mg/kg/day
  weight: 23.5 g and 21 g
[6]; both high and low doses
  health status / death of tested mice during the treatment: without death
[6]; both low dose and high dose
  weight of mice during the experiment: did not show a significant decrease
[6]; high dose (200 mg/kg/day) intraperitoneally, Fourth measurement, 200 mg/kg/day
  weight: 23 g and 20 g
[6]; high dose (200 mg/kg/day) intraperitoneally, Second measurement, 200 mg/kg/day
  weight: 18.5 g and 21 g and 19 g
[6]; high dose (200 mg/kg/day) intraperitoneally, Third measurement, 200 mg/kg/day
  weight: 19 g and 22 g and 18.5 g
[7]
  viability at 10 µM: 123%
[8]; [11]
  tumor volume: 592 mm3
  tumor volume growth: 592 mm3
[8]; [12]
  tumor longest length: 11 mm and 13 mm and 14 mm
  tumor width: 8 mm and 12 mm
[8]; [13]
  tumor volume: 562.1667 mm3
  tumor volume growth: −240.3333 mm3
[8]; [14]
  tumor longest length: 10 mm and 14 mm and 13 mm
  tumor width: 7 mm and 13 mm
[8]; [15]
  tumor volume: 277.5 mm3
  tumor volume growth: −314.5 mm3
[8]; [16]
  tumor longest length: 8 mm and 16 mm and 9 mm
  tumor width: 5 mm and 8 mm and 7 mm
[8]; [17]
  tumor volume: 802.5 mm3
  tumor volume growth: 525 mm3
[8]; both low dose and high dose, FIG. 2
  inhibition effect on tumor cells: significant inhibition effect
[8]; [18]
  tumor volume: can also reduce the tumor volume
  tumor volume growth: effectively slow down the tumor volume growth
[8]; [19]
  tumor volume: 81.17 mm3
  tumor volume growth: 81.17 mm3
[8]; [20]
  tumor longest length: 7 mm and 6 mm
  tumor width: 5 mm and 6 mm and 4 mm
[8]; [21]
  tumor volume: 22.33 mm3
  tumor volume growth: −56.8333 mm3
[8]; [22]
  tumor volume: 131.1667 mm3
  tumor volume growth: 50 mm3
[8]; [23]
  tumor longest length: 7 mm and 6 mm
  tumor width: 7 mm and 5 mm
[8]; [24]
  tumor volume: 79.17 mm3
  tumor volume growth: −52 mm3
[8]; high dose (200 mg/kg/day) intraperitoneally, Third measurement, single mice A, B, C
  tumor width: 5 mm
[8]; [25]
  tumor longest length: 7 mm and 6 mm
  tumor volume: 87.5 mm3 and 75 mm3
[8]; high doses, FIG. 3
  inhibition of tumor growth, high doses compared with low dose: better effect to inhibit tumor growth
[9]; 72 h, average of tests
  viability at 10 µM: 110%
[9]; 72 hours, test 0602-30 min
  viability at 10 µM: 89%
[9]; 72 hours, test 0605-10 min
  viability at 10 µM: 107%
[9]; 72 hours, test 0607-10 min
  viability at 10 µM: 132%
[9]; 72 hours, test 0609-10 min
  viability at 10 µM: 113%
[10]; 72 h, average of tests
  viability at 10 µM: 77.4%
[10]; 72 hours, test 6-26-10 min
  viability at 10 µM: 82.6%
[10]; 72 hours, test 6-28-10 min
  viability at 10 µM: 86.7%
[10]; 72 hours, test 6-30-10 min
  viability at 10 µM: 64.9%
[10]; 72 hours, test 7-3-10 min
  viability at 10 µM: 75.3%
